Laboratory results: US4013663A, “Isoquinoline compounds” (priority 1974, dated 1977)

Experiments:
in vivo = conditions: mouse, in vivo, iv
Procedure: (§1) The investigations on toxicity were carried out by intravenous administration to albino mice.

albino mice = assay: in vivo; conditions: Table 3
Procedure: as §1

[1] = system: β-receptors of the blood vessel system; assay: β-receptor blocking activity on the blood vessel system (blood pressure measurement in the same animal); format: in vivo, guinea pig; conditions: ratio of effective doses from Table 1, given as 1: x
Procedure: (§2) The particular β-receptor blocking activity on the heart in comparison to that on the blood vessel system was measured by the taking of an EKG or by measurement of the blood pressure in the same animal (guinea pigs) [cf. J. R. C. Baird et al., J. Pharm. Pharmac. […] For investigation of broncho-constrictor activity, the inhibition of the isoprenalin effect on the bronchial system of the guinea pig is employed [cf. H. Konzett et al., Arch. exp. Path. Pharmak.

[2] = system: β-receptors of the bronchial system; assay: inhibition of the isoprenalin effect on the bronchial system; format: in vivo, guinea pig; conditions: for Heart: Bronchial System (activity relationship, heart = 1): ratio of effective doses from Table 1, given as 1: x; for dosage relationships in comparison with the comparison compound: Table 2, versus F; for influence of heart-active doses on the bronchial system: at heart-active doses
Procedure: as §2

SMILES | LD50 (in vivo) [mg/kg] | toxicity and activity in comparison with E, F, and G (albino mice) | Heart: Blood vessels (activity relationship, heart = 1) [1] | Heart: Bronchial System (activity relationship, heart = 1) [2] | dosage relationships in comparison with the comparison compound [2] | influence of heart-active doses on the bronchial system [2]
CC(C)(C)NCC(O)COc1cccc2c1CCN(C=O)C2 (stereo not shown) [Substance D, 2-formyl-1,2,3,4-tetrahydro-5-(2-hydroxy-3-tert.-butylaminopropoxy)-isoquinoline] | 128 | less toxic at higher activity |  |  |  | 
CC(C)NCC(O)COc1cccc2ccccc12 (stereo not shown) [Substance F, propranolol, reference compound] |  |  | 1 | 0.15 |  | 
CC(C)NCC(O)COc1cccc2c1CCN(C=O)C2 (stereo not shown) [Substance C, 2-formyl-1,2,3,4-tetrahydro-5-(2-hydroxy-3-isopropylamino-propoxy)-isoquinoline] | 148 | less toxic at higher activity |  |  |  | 
CC(=O)Nc1ccc(OCC(O)CNC(C)C)cc1 (stereo not shown) [Substance G, practolol, reference compound] | 121 |  |  |  |  | 
CC(C)NCC(O)COc1cccc2[nH]ccc12 (stereo not shown) [Substance E, prindolol, reference compound] | 22.6 |  |  |  |  | 
CC(=O)N1CCc2cc(OCC(O)CNC(C)C)ccc2C1 (stereo not shown) [Substance A, 2-acetyl-1,2,3,4-tetrahydro-6-(2-hydroxy-3-isopropylamino-propoxy)-isoquinoline] |  |  | 6.2 | 5.5 | essentially more favorable than for the comparison compound | does not lead to a negative influence on the bronchial system
COc1cc2c(cc1OCC(O)CNC(C)C)CCN(C(C)=O)C2 (stereo not shown) [Substance B, 2-acetyl-1,2,3,4-tetrahydro-6-(2-hydroxy-3-isopropylamino-propoxy)-7-methoxy-isoquinoline] |  |  | 1.8 | > 7.2 | essentially more favorable than for the comparison compound | does not lead to a negative influence on the bronchial system
